Measured values reported in PMC11674800, “Second-Generation Antipsychotics Induce Metabolic Disruption in Adipose Tissue-Derived Mesenchymal Stem Cells Through an aPKC-Dependent Pathway” (Cells, 2024).

How the values were obtained:
ADSCs [1] = conditions: 7 days; 1 to 50 μM
ADSCs [2] = assay: Vacuolization assay; assay type: cell-based, human; conditions: 5 μM, 4 h
Method: After 4 h, pictures were acquired using a phase contrast microscope (DMi1, Leica, Wetzlar, Germany).

[3] = system: PPARG, FABP4, HSL, and LPL; assay: Adipogenic gene expression (real-time PCR); assay type: cell-based, human; conditions: differentiated cells cotreated with 5 µM
Method: After treatment, RNA was extracted using the phenol/chloroform method (RNAzol, Sigma-Aldrich, Saint Louis, MO, USA) followed by isopropanol precipitation, according to the manufacturer’s instructions. The precipitated RNA was then washed with 75% ice-cold ethanol and resuspended in water. The RNA concentration was measured using NanoDrop 2000. cDNA was synthesized via reverse transcription using recombinant Moloney murine leukemia virus reverse transcriptase (MultiScribe Reverse Transcriptase, Bio-Rad, Hercules, CA, USA) and the iScript cDNA Synthesis Kit (Bio-Rad, Hercules, CA, USA). Gene expression was analyzed using real-time PCR using the SsoAdvanced Universal SYBR Green Supermix Kit (Bio-Rad, Hercules, CA, USA). Relative quantification was calculated using the ΔΔCt method.

LC3B = assay: Autophagy induction (LC3B Western blot, LAMP1/LC3B colocalization); assay type: cell-based, human; conditions: 16 h treatment
Method: After treatments, whole-cell lysates were prepared using RIPA lysis buffer supplemented with protease inhibitors (AEBSF, aprotinin, bestatin, E-64, EDTA, leupeptin, Sigma-Aldrich, Saint Louis, MO, USA) and orthovanadate (Sigma-Aldrich, Saint Louis, MO, USA). The proteins in the lysates were collected and quantified using the Pierce BCA protein assay kit (Thermo Fisher Scientific, Waltham, MA, USA). Subsequently, the proteins were denatured by heating at 95 °C for 5 min in the presence of 2% Sodium Dodecyl Sulfate (SDS, Sigma-Aldrich, Saint Louis, MO, USA), 150 mM dithiothreitol (DTT, Sigma-Aldrich, Saint Louis, MO, USA), and 0.01% bromophenol blue (Sigma-Aldrich, Saint Louis, MO, USA). The samples were then analyzed using SDS-PAGE (SDS-Polyacrylamide Gel Electrophoresis) and Western blotting (WB).
(§1) For INSRβ endocytosis experiments, the cells were stimulated with 50 ng/mL insulin for 15 min. For transferrin endocytosis experiments, the cells were incubated with 25 μg/mL Transferrin Texas Red for 5 min. After treatment, the cells were washed with PBS and fixed with 4% PFA for 10 min at room temperature, followed by an additional PBS wash. The cells were then permeabilized by incubating them with cold HEPES-Triton X-100 buffer for 5 min at 4 °C. After permeabilization, the cells were incubated with primary antibodies for 30 min, followed by incubation with Alexa Fluor 488- or 546-conjugated secondary antibodies (Invitrogen, Waltham, MA, USA) and phalloidin, labeled with either Alexa Fluor 546 or 633 (Invitrogen Waltham, MA, USA) for 30 min. After incubation, coverslips were mounted on glass slides using a mounting medium. Images were acquired using a confocal microscope (Leica TCS SP8, Wetzlar, Germany) and analyzed using ImageJ (v 1.52a) software in order to quantify and analyze the fluorescence signals.

ADSCs [4] = assay: Acidic vesicle quantification (Lysotracker); assay type: cell-based, human
Method: After treatment, the medium was removed, and the cells were stained with 50 nM Lysotracker Deep Red (Invitrogen, Waltham, MA, USA) and 5 μg/mL Hoechst 33342 (Sigma). Staining was conducted in the dark at 37 °C for 30 min. Fluorescence signals were captured using a FLoid Cell Imaging Station (Life Technology, Carlsbad, CA, USA). The ratio of Lysotracker red signal to blue nuclear signal was quantified using ImageJ software. For acidic vesicle rescue experiments, ADSCs were plated at a concentration of 10,000 cells per well in 48-well plates.

TFEB = TFEB nuclear localization (confocal microscopy); assay type: cell-based, human; conditions: 5 μM, 16 h; compared to untreated cells
Method: as §1

SMILES: Cc1cc2c(s1)Nc1ccccc1N=C2N1CCN(C)CC1 [olanzapine]
- effects on cell viability (ADSCs [1]): negligible effects
- vacuolization induction (ADSCs [2]): absent
- expression of genes related to adipogenesis (PPARG, FABP4, HSL, LPL) [3]: significantly reduced expression
- colocalization of LAMP1 with LC3B (LC3B): not observed
- conversion of LC3B-I to LC3B-II (LC3B): not after olanzapine
- acidic compartment accumulation (Lysotracker staining) (ADSCs [4]): progressive time- and dose-dependent increase
- concentrations at which acidic compartment accumulation was observed (ADSCs [4]): below 1 µM
- increase in TFEB nuclear localization (TFEB): 50%
